Test results from paper PMC9203742 (Nature Communications, 2022).
Values joined by “and” are separate entries in the source; they are usually repeats but may differ in a detail not shown here. Identical values can stand only once.

Columns and labels:
[1] = biological target: T1, mGlu1 P57H/N264H mutant (Rattus norvegicus, UniProt P23385, N264H/P57H); experiment: Fura-2 Ca2+ imaging in HEK293 cells expressing mGlu1 P57H/N264H; type: cell-based; conditions: for Ca2+ response (delta ratio), P57H/N264H: Fig.1e; for Ca2+ response of individual cells (source data Suppl Fig1), P57H/N264H: single-cell values #1-#20
T1 construct: expressed in transfected cells; host or cells: HEK293

[2] = biological target: T2, mGlu1 A59H/A265H mutant (Rattus norvegicus, UniProt P23385, A265H/A59H); experiment: Fura-2 Ca2+ imaging in HEK293 cells expressing mGlu1 A59H/A265H; type: cell-based; conditions: Fig.1e
T2 construct: expressed in transfected cells; host or cells: HEK293

[3] = test system: mGlu1 construct not given; experiment: Fura-2 Ca2+ imaging in HEK293 cells, source data Suppl Fig1, middle group (c9-c17); construct not given; type: cell-based, rat; conditions: single-cell values, cells #15-#20; middle group of third block
Text: (§1) Supplement 41467_2022_30828_MOESM6_ESM.zip/Ojima et al_source data_Suppl Fig.xlsx, sheet "Suppl Fig1" | column: Glu; NiCl2; CuCl2; ZnCl2; CdCl2; Na2PdCl2; Pd(bpy)

[4] = test system: HEK293 cells, vector control; experiment: Fura-2 Ca2+ imaging in HEK293 cells transfected with control vector (Vec); type: cell-based; conditions: single-cell values #1-#20; as to Ca2+ response of individual cells (source data Suppl Fig1), Vec: test concentration or dose not given here
[5] = biological target: T3, mGlu1 A59H/N264H mutant (Rattus norvegicus, UniProt P23385, A59H/N264H); experiment: Fura-2 Ca2+ imaging in HEK293 cells expressing mGlu1 A59H/N264H; type: cell-based; conditions: for Ca2+ response (delta ratio), A59H/N264H: Fig.1e; for Ca2+ response of individual cells (source data Suppl Fig1), A59H/N264H: single-cell values #1-#20
T3 construct: expressed in transfected cells; host or cells: HEK293

[6] = biological target: T4, mGlu1 E60H/N264H mutant (Rattus norvegicus, UniProt P23385, E60H/N264H); experiment: Fura-2 Ca2+ imaging in HEK293 cells expressing mGlu1 E60H/N264H; type: cell-based; conditions: for Ca2+ response (delta ratio), E60H/N264H: Fig.1e; for Ca2+ response of individual cells (source data Suppl Fig1), E60H/N264H: single-cell values #1-#20
T4 construct: expressed in transfected cells; host or cells: HEK293

[7] = test system: mGlu1 construct not given; experiment: Fura-2 Ca2+ imaging in HEK293 cells, source data Suppl Fig1, left group (c0-c8); construct not given; type: cell-based, rat; conditions: single-cell values, cells #15-#20; left group of third block
Text: as §1

[8] = biological target: T5, mGlu1 A59H/G266H mutant (Rattus norvegicus, UniProt P23385, A59H/G266H); experiment: Fura-2 Ca2+ imaging in HEK293 cells expressing mGlu1 A59H/G266H; type: cell-based; conditions: single-cell values; as to Ca2+ response (delta ratio), A59H/G266H: test concentration or dose not given here
T5 construct: expressed in transfected cells; host or cells: HEK293

[9] = biological target: T6, mGlu1 P58H/N264H mutant (Rattus norvegicus, UniProt P23385, N264H/P58H); experiment: Fura-2 Ca2+ imaging in HEK293 cells expressing mGlu1 P58H/N264H; type: cell-based; conditions: for Ca2+ response (delta ratio), P58H/N264H: Fig.1e; for Ca2+ response of individual cells (source data Suppl Fig1), P58H/N264H: single-cell values #1-#20
T6 construct: expressed in transfected cells; host or cells: HEK293

[10] = biological target: T7, mGlu1 K61H/N264H mutant (Rattus norvegicus, UniProt P23385, K61H/N264H); experiment: Fura-2 Ca2+ imaging in HEK293 cells expressing mGlu1 K61H/N264H; type: cell-based; conditions: for Ca2+ response (delta ratio), K61H/N264H: Fig.1e; for Ca2+ response of individual cells (source data Suppl Fig1), K61H/N264H: single-cell values
T7 construct: expressed in transfected cells; host or cells: HEK293

[11] = test system: mGlu1 construct not given; experiment: Fura-2 Ca2+ imaging in HEK293 cells, source data Suppl Fig1, right group (c18-c26); construct not given; type: cell-based, rat; conditions: single-cell values, cells #15-#20; right group of third block
Text: as §1

[12] = test system: HEK293 cells, vector control; experiment: Fura-2 Ca2+ imaging in HEK293 cells transfected with control vector (Vec); type: cell-based; conditions: Fig.1e; as to Ca2+ response of individual cells (source data Suppl Fig1), Vec: test concentration or dose not given here
Text: Supplement 41467_2022_30828_MOESM6_ESM.zip/Ojima et al_source data_Main Figure.xlsx, sheet "Fig.1e" | column: Vec

[13] = biological target: T8, WT mGlu1 (Rattus norvegicus, UniProt P23385); type: cell-based; conditions: for Ca2+ response (delta ratio), WT: Fig.1e; for Ca2+ response of individual cells (source data Suppl Fig1), WT: single-cell values #1-#20; as to all read-outs here: test concentration or dose not given here
T8 construct: expressed in transfected cells; host or cells: HEK293

[14] = biological target: T2, mGlu1 A59H/A265H mutant; experiment: Fura-2 Ca2+ imaging in HEK293 cells expressing mGlu1 A59H/A265H; type: cell-based; conditions: single-cell values
[15] = biological target: T5, mGlu1 A59H/G266H mutant; experiment: Fura-2 Ca2+ imaging in HEK293 cells expressing mGlu1 A59H/G266H; type: cell-based; conditions: Fig.1e

T1 sequence (P23385 19-1199 P57H/N264H): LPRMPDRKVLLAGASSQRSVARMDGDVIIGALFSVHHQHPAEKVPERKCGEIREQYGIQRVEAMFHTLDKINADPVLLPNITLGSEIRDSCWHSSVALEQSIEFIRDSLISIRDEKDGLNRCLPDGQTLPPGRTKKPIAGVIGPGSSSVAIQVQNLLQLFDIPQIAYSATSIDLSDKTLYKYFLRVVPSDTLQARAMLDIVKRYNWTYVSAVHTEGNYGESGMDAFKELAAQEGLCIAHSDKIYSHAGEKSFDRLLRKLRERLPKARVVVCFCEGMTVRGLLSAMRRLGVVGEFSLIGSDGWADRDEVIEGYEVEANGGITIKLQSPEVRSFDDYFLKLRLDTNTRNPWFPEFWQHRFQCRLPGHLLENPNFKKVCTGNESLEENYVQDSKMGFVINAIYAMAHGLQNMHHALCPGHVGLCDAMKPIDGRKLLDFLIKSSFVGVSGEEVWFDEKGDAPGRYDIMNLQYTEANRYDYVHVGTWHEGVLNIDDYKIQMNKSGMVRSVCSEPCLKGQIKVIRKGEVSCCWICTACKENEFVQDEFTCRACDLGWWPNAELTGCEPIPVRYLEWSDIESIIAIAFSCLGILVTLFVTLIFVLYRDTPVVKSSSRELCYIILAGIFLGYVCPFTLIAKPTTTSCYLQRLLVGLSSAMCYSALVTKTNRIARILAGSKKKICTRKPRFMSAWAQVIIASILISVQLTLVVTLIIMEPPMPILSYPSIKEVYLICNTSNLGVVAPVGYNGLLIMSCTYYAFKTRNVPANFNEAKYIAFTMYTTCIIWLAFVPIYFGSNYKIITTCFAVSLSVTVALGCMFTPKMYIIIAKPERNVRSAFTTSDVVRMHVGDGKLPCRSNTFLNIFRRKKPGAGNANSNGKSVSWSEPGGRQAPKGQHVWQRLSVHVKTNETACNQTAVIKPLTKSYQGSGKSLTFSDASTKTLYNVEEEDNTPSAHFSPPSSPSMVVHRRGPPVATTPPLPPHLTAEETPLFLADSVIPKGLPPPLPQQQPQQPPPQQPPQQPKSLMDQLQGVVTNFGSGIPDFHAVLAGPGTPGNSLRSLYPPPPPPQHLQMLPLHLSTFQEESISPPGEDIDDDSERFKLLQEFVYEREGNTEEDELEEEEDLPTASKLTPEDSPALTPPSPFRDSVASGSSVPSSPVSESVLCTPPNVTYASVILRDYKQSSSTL
T5 sequence (P23385 19-1199 A59H/G266H): as the sequence (P23385 19-1199 P57H/N264H) above, with H39P, A41H, H246N, G248H counted along it
T7 sequence (P23385 19-1199 K61H/N264H): as the sequence (P23385 19-1199 P57H/N264H) above, with H39P, K43H counted along it
T8 sequence (P23385 19-1199): as the sequence (P23385 19-1199 P57H/N264H) above, with H39P, H246N counted along it
T2 sequence (P23385 19-1199 A59H/A265H): as the sequence (P23385 19-1199 P57H/N264H) above, with H39P, A41H, H246N, A247H counted along it
T4 sequence (P23385 19-1199 E60H/N264H): as the sequence (P23385 19-1199 P57H/N264H) above, with H39P, E42H counted along it
T3 sequence (P23385 19-1199 A59H/N264H): as the sequence (P23385 19-1199 P57H/N264H) above, with H39P, A41H counted along it
T6 sequence (P23385 19-1199 P58H/N264H): as the sequence (P23385 19-1199 P57H/N264H) above, with H39P, P40H counted along it

| Compound | Ca2+ response (delta ratio), P57H/N264H [1] | Ca2+ response of individual cells (source data Suppl Fig1), P57H/N264H [1] | Ca2+ response (delta ratio), A59H/A265H [2] | Ca2+ response of individual cells (source data, sheet Suppl Fig1) [3] | Ca2+ response of individual cells (source data Suppl Fig1), Vec [4] | Ca2+ response (delta ratio), A59H/N264H [5] | Ca2+ response of individual cells (source data Suppl Fig1), A59H/N264H [5] | Ca2+ response (delta ratio), E60H/N264H [6] | Ca2+ response of individual cells (source data Suppl Fig1), E60H/N264H [6] | Ca2+ response of individual cells (source data, sheet Suppl Fig1) [7] | Ca2+ response of individual cells (source data Suppl Fig1), A59H/G266H [8] | Ca2+ response (delta ratio), P58H/N264H [9] | Ca2+ response of individual cells (source data Suppl Fig1), P58H/N264H [9] | Ca2+ response (delta ratio), K61H/N264H [10] | Ca2+ response of individual cells (source data Suppl Fig1), K61H/N264H [10] | Ca2+ response of individual cells (source data, sheet Suppl Fig1) [11] | Ca2+ response (delta ratio), Vec [12] | Ca2+ response (delta ratio), WT [13] | Ca2+ response of individual cells (source data Suppl Fig1), WT [13] | Ca2+ response of individual cells (source data Suppl Fig1), A59H/A265H [14] | also measured |
| --- | --- | --- | --- | --- | --- | --- | --- | --- | --- | --- | --- | --- | --- | --- | --- | --- | --- | --- | --- | --- | --- |
| [Cl][Ni][Cl] [NiCl2] | 0.01834 | -0.01177 and -0.0082 and 0.005215 and 0.04513 and 0.01995 and 0.003931 and -0.01436 and 0.02328 and -0.02887 and -0.004769 and -0.02686 and -0.008069 and 0.003369 and 0.01493 and -0.02254 and -0.001223 and 0.3415 and -0.007623 and 0.04519 and -0.0014 | 0.01054 | 0.03642 and 0.005192 and 0.02775 and -0.01323 and -0.002362 and 0.009469 | -0.01071 and 0.01858 and -0.01644 and -0.01578 and -0.0028 and -0.01812 and -0.01767 and -0.01609 and -0.0009 and -0.0156 and -0.02858 and -0.009415 and -0.001254 and -0.01445 and -0.004377 and -0.001977 and -0.0008692 and 0.006415 and 0.01396 and 0.004169 | 0.05683 | 0.3729 and -0.001931 and -0.001046 and 0.01178 and 0.01916 and -0.01828 and -0.02652 and 0.02399 and 0.0008077 and 0.2216 and -0.004754 and -0.01916 and -0.02225 and 0.2474 and 0.3157 and 0.001138 and -0.0037 and -0.007646 and -0.0005385 and 0.0279 | -0.01792 | -0.0467 and -0.05411 and -0.02817 and -0.02148 and 0.004623 and 0.0091 and -0.02117 and -0.04309 and -0.01538 and -0.003069 and -0.02522 and -0.003569 and 0.01539 and -0.02995 and -0.01439 and -0.004777 and -0.04676 and -0.0003 and -0.01138 | -0.01619 and -0.01292 and 0.01722 and -0.04921 and -0.009638 and -0.02348 | -0.007338 and -0.001015 and -0.03149 and 0.03385 and 0.01174 and 0.008792 and -0.03335 and -0.003362 and 0.01265 and 0.02216 and 0.003731 and -0.008569 and 0.01177 and -0.002115 | 0.05353 | 0.03009 and 0.04043 and -0.04005 and 0.07079 and 0.04304 and 0.04053 and 0.04913 and 0.06845 and 0.2599 and -0.02289 and 0.03599 and 0.03797 and 0.05281 and 0.1306 and 0.05504 and 0.04257 and 0.06472 and 0.07143 and 0.03615 and 0.003946 | -0.01365 | -0.03782 and -0.01632 and -0.02464 and 0.009846 and -0.01781 and 0.02198 and -0.0009692 and 0.02142 and -0.009608 and -0.02934 and -0.05039 and -0.01796 and -0.007623 and -0.01945 | 0.03285 and -0.01932 and -0.04406 and 0.003838 and -0.02115 and 0.02962 | -0.006595 | 0.03319 | -0.005477 and -0.01458 and 0.001892 and -0.01835 and 0.1195 and 0.01671 and 0.05379 and 0.4457 and 0.004608 and -0.002423 and 0.004238 and 0.01116 and 0.1174 and -0.002515 and -0.001223 and -0.001015 and -0.0129 and -0.004708 and 0.01682 and -0.06482 | -0.0004462 and -0.005215 and 0.006554 and -0.007815 and 0.01005 and -0.006508 and -0.02278 and 0.001031 and 0.01621 and 0.004377 and -0.02859 and 0.008423 and 0.09357 and 0.07873 | Ca2+ response (delta ratio), A59H/G266H [15]: -3.81E-05 |
| [Cl-].[Cl-].[Zn+2] [ZnCl2] | -0.002972 | -0.0004538 and -0.005931 and -0.01735 and 0.02302 and 0.0025 and -0.02347 and -0.004954 and -0.01065 (2×) and 0.01802 and -0.01439 and 0.007646 and -0.01182 and 0.0001154 and -0.0004462 and -0.009846 and 0.01085 and 0.0122 and -0.009315 and -0.01449 | 0.009782 | -0.0199 and 0.02527 and 0.05882 and -0.05132 and 0.1351 and 0.01718 | -0.02208 and -0.02062 and -0.01588 and -0.01264 and 0.0006769 and -0.01746 and -1.54E-05 and -0.004454 and -0.02104 and -0.008908 and -0.02662 and 0.006915 and 0.02477 and 0.001469 and -0.01177 and -0.03347 and -0.02945 and -0.01742 and 0.01306 and -0.02001 | 0.00725 | -0.01136 and 0.3757 and -0.01768 and -0.004631 and 0.0006077 and -0.008377 and -0.02044 and 0.005169 and -0.005323 and -0.01275 and -0.1876 and -0.01388 and 0.06164 and -0.009792 and -0.01495 and -0.03905 and -8.46E-05 and 0.03053 and 0.01748 and -0.0002154 | -0.009416 | -0.005892 and -0.03255 and -0.003646 and -0.02008 and -0.003615 and 0.05645 and 0.08788 and -0.01442 and -0.01449 and -0.04369 and -0.008223 and -0.02082 and -0.01922 and -0.01408 and -0.01929 and -0.02112 and -0.02071 and -0.02984 and -0.03302 and -0.007923 | -0.009 and -0.001631 and -0.01245 and -0.02388 and -0.01824 and -0.008531 | -0.005723 and -0.01571 and -0.007938 and -0.01115 and -0.002308 and 0.008723 and -0.07331 and -0.0327 and -0.004923 and 0.01074 and -0.0004923 and -0.02615 and -0.03942 and 0.04141 | -0.00161 | -0.01858 and -0.04214 and -0.01035 and -0.0081 and -0.006638 and 0.08488 and -0.007315 and -0.007238 and -0.01048 and -0.008431 and -0.001785 and 0.004277 and -0.0127 and -0.01994 and 0.003692 and 0.002931 and 0.009408 and 0.02135 and 0.0149 and -0.01995 | 0.01018 | 0.0106 and 0.02204 and -0.0158 and -0.01138 and -0.0001308 and -0.01253 and -0.01344 and 0.3114 and -0.05129 and -0.02739 and -0.01424 and -0.005346 and 0.09999 and -0.01502 | -0.02524 and -0.001377 and -0.01992 and 0.004231 and -0.03185 and -0.008431 | -0.01075 | 0.00492 | -0.0004923 and -0.006346 and -0.007608 and 0.01052 and -0.003585 and 0.007785 and 0.05315 and -0.005223 and -0.002885 and -0.002892 and -0.004792 and -0.003569 and 0.002877 and -0.04019 and -0.002708 and -0.06293 and -0.001754 and 0.176 and -0.006623 and -0.0003538 | 0.02775 and 0.01526 and -0.01 and -0.0009538 and -0.04594 and 0.01742 and 0.01817 and 0.02166 and -0.009515 and -0.04688 and 0.04091 and -0.03576 and 0.04018 and -0.001815 | Ca2+ response (delta ratio), A59H/G266H [15]: -0.01208 |
